Assay results reported in patent publication US20060069132A1, “Azolecarboxamide herbicides” (priority 2004, published 2006).

How the values were obtained:
[1] = test system: small flower umbrella sedge; assay: Test B flooded paddy test; format: in vivo, Cyperus difformis; conditions: 1000 g ai/ha, scale 0 to 100 (0 no effect, 100 complete control)
How it was run: (§1)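 Read-out: visual comparison with controls, scored 0 to 100, where 100 means complete control and 0 no effect. Formulated chemicals were applied postemergence to plants 2–18 cm tall (1- to 4-leaf), or to flooded-paddy plants at the 2-leaf stage, then held 13 to 15 days under glass.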

ducksalad = assay: Test B flooded paddy test; format: in vivo, Heteranthera limosa; conditions: 1000 g ai/ha, scale 0 to 100 (0 no effect, 100 complete control)
How it was run: as §1

barnyardgrass [2] = assay: Test B flooded paddy test; format: in vivo, Echinochloa crus-galli; conditions: 1000 g ai/ha, scale 0 to 100 (0 no effect, 100 complete control)
How it was run: as §1

giant foxtail = assay: Test B pre-/postemergence herbicide test; format: in vivo, Setaria faberi; conditions: for Plant response rating (0 to 100 scale), Foxtail, Giant: 0 is no effect; for Plant response rating (0 to 100 scale), Foxtail, Giant / Plant response rating, Foxtail, Giant: preemergence; for Foxtail, Giant plant response rating: postemergence; for Plant response rating, Foxtail, Giant: 0 = no effect, 100 = complete control
How it was run: (§2)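 Seeds were planted and treated preemergence with compounds formulated in a non-phytotoxic solvent mixture containing surfactant, while plants at the 1- to 4-leaf stage (2 to 18 cm) received postemergence sprays. Flooded paddy plants were grown to the 2-leaf stage. After 13 to 15 days in a greenhouse, injury was visually rated 0–100 against untreated controls.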

cocklebur = assay: Test B pre-/postemergence herbicide test; format: in vivo, Xanthium strumarium; conditions: for Plant response rating (0 to 100 scale), Cocklebur: 0 is no effect; for Plant response rating (0 to 100 scale), Cocklebur / Plant response rating, Cocklebur: preemergence; for Cocklebur plant response rating: postemergence; for Plant response rating, Cocklebur: 0 = no effect, 100 = complete control
How it was run: (§3)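 Pre: seeds sown, then sprayed. Post: 1–4-leaf plants (2–18 cm) sprayed at the same time. Paddy: flooded, treated at 2-leaf stage. Formulation: non-phytotoxic solvent with surfactant. Greenhouse 13–15 days; visual 0–100 score relative to controls.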

barnyardgrass [3] = assay: Test B pre-/postemergence herbicide test; format: in vivo, Echinochloa crus-galli; conditions: for Plant response rating (0 to 100 scale), Barnyardgrass: 0 is no effect; for Plant response rating (0 to 100 scale), Barnyardgrass / Plant response rating, Barnyardgrass: preemergence; for Barnyardgrass plant response rating: postemergence; for Plant response rating, Barnyardgrass: 0 = no effect, 100 = complete control
How it was run: as §3

large crabgrass = assay: Test B pre-/postemergence herbicide test; format: in vivo, Digitaria sanguinalis; conditions: for Plant response rating (0 to 100 scale), Crabgrass, Large: 0 is no effect; for Plant response rating (0 to 100 scale), Crabgrass, Large / Plant response rating, Crabgrass, Large: preemergence; for Crabgrass, Large plant response rating: postemergence; for Plant response rating, Crabgrass, Large: 0 = no effect, 100 = complete control
How it was run: as §2

wheat = assay: Test B postemergence herbicide test; format: in vivo, Triticum aestivum; parameters: key to Wheat plant response rating: 0 = no effect, 100 = complete control; conditions: postemergence
How it was run: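 Postemergence plants were sprayed with formulated test chemicals at 2 to 18 cm height (1- to 4-leaf stage); paddy species were grown to the 2-leaf stage. After 13 to 15 days in a greenhouse, injury was rated visually against untreated controls on a 0–100 scale (0 = no effect, 100 = complete control).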

lambsquarters = assay: Test B pre-/postemergence herbicide test; format: in vivo, Chenopodium album; conditions: for Plant response rating (0 to 100 scale), Lambsquarters: 0 is no effect; for Plant response rating (0 to 100 scale), Lambsquarters / Plant response rating, Lambsquarters: preemergence; for Lambsquarters plant response rating: postemergence; for Plant response rating, Lambsquarters: 0 = no effect, 100 = complete control
How it was run: as §2

blackgrass = assay: Test B postemergence herbicide test; format: in vivo, Alopecurus myosuroides; conditions: postemergence
How it was run: as §1

rice = assay: Test B flooded paddy test; format: in vivo, Oryza sativa; conditions: 1000 g ai/ha, scale 0 to 100 (0 no effect, 100 complete control)
How it was run: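 Visual ratings, 0 (no effect) to 100 (complete control), made versus controls after 13–15 d greenhouse. Paddy plants treated at 2-leaf stage; postemergence plants at 1- to 4-leaf stage, 2–18 cm tall.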

Surinam grass = assay: Test B pre-/postemergence herbicide test; format: in vivo, Urochloa decumbens; conditions: for Plant response rating (0 to 100 scale), Surinam Grass: 0 is no effect; for Plant response rating (0 to 100 scale), Surinam Grass / Plant response rating, Surinam Grass: preemergence; for Surinam Grass plant response rating: postemergence; for Plant response rating, Surinam Grass: 0 = no effect, 100 = complete control
How it was run: as §2

velvetleaf = assay: Test B pre-/postemergence herbicide test; format: in vivo, Abutilon theophrasti; conditions: for Plant response rating (0 to 100 scale), Velvetleaf: 0 is no effect, preemergence; for Velvetleaf plant response rating: postemergence
How it was run: as §2

morningglory = assay: Test B pre-/postemergence herbicide test; format: in vivo, Ipomoea coccinea; conditions: for Morningglory plant response rating: postemergence; for Plant response rating, Morningglory: 0 = no effect, 100 = complete control
How it was run: as §3

corn = assay: Test B pre-/postemergence herbicide test; format: in vivo, Zea mays; conditions: postemergence
How it was run: as §2

[4] = 125 g ai/ha, 100 is complete control
[5] = 125 g ai/ha, visual rating, scale 0 (no effect) to 100 (complete control)
[6] = 500 g ai/ha, scale 0 to 100, 0 is no effect, 100 is complete control
[7] = 500 g ai/ha, visual rating, preemergence

CCC1=NN(C(C)(C)C)CC1C(=O)Nc1cc(C(=O)N2CCCC2)ccc1F (racemic) [Compound 341]
Sedge, Umbrella plant response rating [1]: 80 | Ducksalad plant response rating (ducksalad): 90 | Barnyardgrass plant response rating (barnyardgrass [2]): 90 | Plant response rating (0 to 100 scale), Foxtail, Giant (giant foxtail; [4]): 50 | Foxtail, Giant plant response rating (giant foxtail; [5]): 30 | Plant response rating, Foxtail, Giant (giant foxtail; 500 g ai/ha, visual rating): 90 | Foxtail, Giant plant response rating (giant foxtail; [6]): 30 | Plant response rating (0 to 100 scale), Cocklebur (cocklebur; [4]): 40 | Cocklebur plant response rating (cocklebur; [5]): 10 | Plant response rating, Cocklebur (cocklebur; 500 g ai/ha, visual rating): 100 | Cocklebur plant response rating (cocklebur; [6]): 20 | Plant response rating (0 to 100 scale), Barnyardgrass (barnyardgrass [3]; [4]): 80 | Barnyardgrass plant response rating (barnyardgrass [3]; [5]): 10 | Plant response rating, Barnyardgrass (barnyardgrass [3]; 500 g ai/ha, visual rating): 100 | Barnyardgrass plant response rating (barnyardgrass [3]; [6]): 20 | Plant response rating (0 to 100 scale), Crabgrass, Large (large crabgrass; [4]): 90 | Crabgrass, Large plant response rating (large crabgrass; [5]): 10 | Plant response rating, Crabgrass, Large (large crabgrass; 500 g ai/ha, visual rating): 100 | Crabgrass, Large plant response rating (large crabgrass; [6]): 20 | Wheat plant response rating (wheat; [5]): 10 | Wheat plant response rating (wheat; [6]): 20 | Plant response rating (0 to 100 scale), Lambsquarters (lambsquarters; [4]): 100 | Lambsquarters plant response rating (lambsquarters; [5]): 30 | Plant response rating, Lambsquarters (lambsquarters; 500 g ai/ha, visual rating): 100 | Lambsquarters plant response rating (lambsquarters; [6]): 100 | Blackgrass plant response rating (blackgrass; [5]): 10 | Blackgrass plant response rating (blackgrass; [6]): 20 | Rice plant response rating (rice): 70 | Plant response rating (0 to 100 scale), Surinam Grass (Surinam grass; [4]): 100 | Surinam Grass plant response rating (Surinam grass; [5]): 10 | Plant response rating, Surinam Grass (Surinam grass; 500 g ai/ha, visual rating): 100 | Surinam Grass plant response rating (Surinam grass; [6]): 20 | Plant response rating (0 to 100 scale), Velvetleaf (velvetleaf; [4]): 60 | Velvetleaf plant response rating (velvetleaf; [5]): 20 | Velvetleaf plant response rating (velvetleaf; [6]): 30 | Morningglory plant response rating (morningglory; [5]): 20 | Plant response rating, Morningglory (morningglory; [7]): 30 | Morningglory plant response rating (morningglory; [6]): 40 | Corn plant response rating (corn; [5]): 0 | Corn plant response rating (corn; [6]): 10

CCC1=NN(C(C)(C)C)CC1C(=O)Nc1cc(C(=O)N(C)CC)ccc1F (racemic) [Compound 342]
Sedge, Umbrella plant response rating [1]: 70 | Ducksalad plant response rating (ducksalad): 80 | Barnyardgrass plant response rating (barnyardgrass [2]): 90 | Plant response rating (0 to 100 scale), Foxtail, Giant (giant foxtail; [4]): 40 | Foxtail, Giant plant response rating (giant foxtail; [5]): 20 | Plant response rating, Foxtail, Giant (giant foxtail; 500 g ai/ha, visual rating): 90 | Foxtail, Giant plant response rating (giant foxtail; [6]): 50 | Plant response rating (0 to 100 scale), Cocklebur (cocklebur; [4]): 40 | Cocklebur plant response rating (cocklebur; [5]): 10 | Plant response rating, Cocklebur (cocklebur; 500 g ai/ha, visual rating): 90 | Cocklebur plant response rating (cocklebur; [6]): 20 | Plant response rating (0 to 100 scale), Barnyardgrass (barnyardgrass [3]; [4]): 70 | Barnyardgrass plant response rating (barnyardgrass [3]; [5]): 10 | Plant response rating, Barnyardgrass (barnyardgrass [3]; 500 g ai/ha, visual rating): 100 | Barnyardgrass plant response rating (barnyardgrass [3]; [6]): 20 | Plant response rating (0 to 100 scale), Crabgrass, Large (large crabgrass; [4]): 40 | Crabgrass, Large plant response rating (large crabgrass; [5]): 10 | Plant response rating, Crabgrass, Large (large crabgrass; 500 g ai/ha, visual rating): 100 | Crabgrass, Large plant response rating (large crabgrass; [6]): 20 | Wheat plant response rating (wheat; [5]): 0 | Wheat plant response rating (wheat; [6]): 10 | Plant response rating (0 to 100 scale), Lambsquarters (lambsquarters; [4]): 80 | Lambsquarters plant response rating (lambsquarters; [5]): 60 | Plant response rating, Lambsquarters (lambsquarters; 500 g ai/ha, visual rating): 100 | Lambsquarters plant response rating (lambsquarters; [6]): 100 | Blackgrass plant response rating (blackgrass; [5]): 20 | Blackgrass plant response rating (blackgrass; [6]): 30 | Rice plant response rating (rice): 70 | Plant response rating (0 to 100 scale), Surinam Grass (Surinam grass; [4]): 50 | Surinam Grass plant response rating (Surinam grass; [5]): 10 | Plant response rating, Surinam Grass (Surinam grass; 500 g ai/ha, visual rating): 100 | Surinam Grass plant response rating (Surinam grass; [6]): 20 | Plant response rating (0 to 100 scale), Velvetleaf (velvetleaf; [4]): 70 | Velvetleaf plant response rating (velvetleaf; [5]): 20 | Velvetleaf plant response rating (velvetleaf; [6]): 50 | Plant response rating (0 to 100 scale), Morningglory (morningglory; 125 g ai/ha, 0 is no effect, 100 is complete control, preemergence): 10 | Morningglory plant response rating (morningglory; [5]): 30 | Plant response rating, Morningglory (morningglory; [7]): 70 | Morningglory plant response rating (morningglory; [6]): 80 | Corn plant response rating (corn; [5]): 10 | Corn plant response rating (corn; [6]): 30
